According to patent publication US9624182B2, “Compounds as lysophosphatidic acid receptor antagonists” (Amira Pharmaceuticals, Inc., priority 2009, dated 2017):

target: T1, human LPA1 (Homo sapiens, UniProt Q92633); experiment: LPA1 calcium flux assay; format: cell-based; settings: CHO cells expressing human LPA1, stimulated with 10 nM LPA; read-out: HLPA1 Ca Flux IC50
T1 construct: the full-length cDNA for human LPA1 was obtained by PCR of the reverse transcription reaction; expressed in transfected cells
Outline: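 CHO cells stably expressing cloned human LPA1, serum-starved overnight, loaded with Calcium 4 dye 1 h at 37 °C in HBSS/20 mM Hepes with 0.3% fatty-acid-free HSA. Compounds preincubated 30 min at room temperature, then cells stimulated with 10 nM LPA; intracellular Ca2+ read by fluorescence. IC50 from titration curves.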

T1 sequence (Q92633 whole entry): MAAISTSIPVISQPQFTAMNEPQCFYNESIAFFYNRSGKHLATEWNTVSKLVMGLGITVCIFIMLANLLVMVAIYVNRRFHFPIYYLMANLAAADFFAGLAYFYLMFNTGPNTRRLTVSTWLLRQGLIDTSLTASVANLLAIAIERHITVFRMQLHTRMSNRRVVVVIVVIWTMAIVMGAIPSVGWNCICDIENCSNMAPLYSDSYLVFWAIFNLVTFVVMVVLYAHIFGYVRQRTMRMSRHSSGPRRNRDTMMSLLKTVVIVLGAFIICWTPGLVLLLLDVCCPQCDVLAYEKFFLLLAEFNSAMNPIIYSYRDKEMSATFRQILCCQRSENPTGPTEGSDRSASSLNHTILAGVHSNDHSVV

| IC50 [nM] | Structure (SMILES) |
| --- | --- |
| 1000 to 50000 | Cc1noc(-c2ccc(-c3ccc(C4(C(=O)O)CC4)cc3)cc2)c1C(=O)CCc1cccc(C(F)(F)F)c1 [Compound 1-160, 1-(4′-{3-Methyl-4-[3-(3-trifluoromethyl-phenyl)-propionyl]-isoxazol-5-yl}-biphenyl-4-yl)-cyclopropanecarboxylic acid] |
| 300 to 1000 | CCOC(CCCc1ccccc1)c1c(C)noc1-c1ccc(-c2ccc(C3(C(=O)O)CC3)cc2)cc1 (stereo not shown) [Compound 1-147, 1-{4′-[4-(1-Ethoxy-4-phenyl-butyl)-3-methyl-isoxazol-5-yl]-biphenyl-4-yl}-cyclopropanecarboxylic acid] |
| < 300 | Cc1noc(-c2ccc(-c3ccc(C4(CC(=O)O)CC4)cc3)cc2)c1NC(C)CCc1ccc2c(c1)OCO2 (stereo not shown) [Compound 1-233, (1-{4′-[4-(3-Benzo[1,3]dioxol-5-yl-1-methyl-propylamino)-3-methyl-isoxazol-5-yl]-biphenyl-4-yl}-cyclopropyl)-acetic acid] |
| < 300 | Cc1noc(-c2ccc(-c3ccc(C4(C(=O)O)CC4)cc3)cc2)c1NC(=O)Nc1cccc(Br)c1 [Compound 1-308, 1-(4′-{4-[3-(3-Bromo-phenyl)-ureido]-3-methyl-isoxazol-5-yl}-biphenyl-4-yl)-cyclopropanecarboxylic acid] |
| < 300 | Cc1noc(-c2ccc(-c3ccc(C(C)C(=O)O)cc3)cc2)c1CSCCc1ccccc1 (stereo not shown) [Compound 1-123, 2-[4′-(3-Methyl-4-phenethylsulfanylmethyl-isoxazol-5-yl)-biphenyl-4-yl]-propionic acid] |
| 1000 to 50000 | Cc1noc(-c2ccc(-c3ccc(CC(=O)O)cc3)cc2)c1C(O)COCc1cccc(C(F)(F)F)c1 (stereo not shown) [Compound 1-241, (4′-{4-[1-Hydroxy-2-(3-trifluoromethyl-benzyloxy)-ethyl]-3-methyl-isoxazol-5-yl}-biphenyl-4-yl)-acetic acid] |
| 1000 to 50000 | Cc1noc(-c2ccc(-c3ccc(C4(C(=O)O)CC4)cc3)cc2)c1CCNC(=O)c1ccccc1 [Compound 1-36, 1-{4′-[4-(2-Benzoylamino-ethyl)-3-methyl-isoxazol-5-yl]-biphenyl-4-yl}-cyclopropanecarboxylic acid] |
| < 300 | Cc1noc(-c2ccc(-c3ccc(CCC(=O)O)cc3)cc2)c1NC(C)CCc1cccc(C(F)(F)F)c1 (single isomer, unassigned) [Compound 1-235, 3-(4′-{3-Methyl-4-[1-methyl-3-(3-trifluoromethyl-phenyl)-propylamino]-isoxazol-5-yl}-biphenyl-4-yl)-propionic acid] |
| > 50000 | Cc1noc(-c2ccc(-c3ccc(C4(CC(=O)O)CC4)cc3)cc2)c1NC(C)CCCO (stereo not shown) [Compound 1-229, (1-{4′-[4-(4-Hydroxy-1-methyl-butylamino)-3-methyl-isoxazol-5-yl]-biphenyl-4-yl}-cyclopropyl)-acetic acid] |
| < 300 | Cc1noc(-c2ccc(-c3ccc(CC(=O)O)cc3)cc2)c1CSCCc1ccccc1 [Compound 1-108, [4′-(3-Methyl-4-phenethylsulfanylmethyl-isoxazol-5-yl)-biphenyl-4-yl]-acetic acid] |
| 1000 to 50000 | Cc1noc(-c2ccc(-c3ccc(C4(C(=O)O)CC4)cc3)cc2)c1Nc1cccc(OC(C)C)[n+]1[O-] [Compound 1-309, 1-{4′-[4-(6-Isopropoxy-1-oxy-pyridin-2-ylamino)-3-methyl-isoxazol-5-yl]-biphenyl-4-yl}-cyclopropanecarboxylic acid] |
| < 300 | Cc1noc(-c2ccc(-c3ccc(C4(C(=O)O)CC4)cc3)cc2)c1C(O)C(=O)N[C@H](C)c1ccccc1 (stereo partly drawn) [Compound 1-253, 1-(4′-{4-[Hydroxy-((R)-1-phenyl-ethylcarbamoyl)-methyl]-3-methyl-isoxazol-5-yl}-biphenyl-4-yl)-cyclopropanecarboxylic acid] |
| < 300 | Cc1noc(-c2ccc(-c3ccc(CCC(=O)O)cc3)cc2)c1NC(C)CCc1cccc(Cl)c1 (stereo not shown) [Compound 1-193, 3-(4′-{4-[3-(3-Chloro-phenyl)-1-methyl-propylamino]-3-methyl-isoxazol-5-yl}-biphenyl-4-yl)-propionic acid] |
